13 compounds from patent publication US11919858B2, “Aminonapthoquinone compounds and pharmaceutical composition for blocking ubiquitination-proteasome system in diseases” (Calgent Biotechnology Co., Ltd., priority 2015, dated 2024) can be followed below.

Data set [1] has as its system human A2780 ovarian adenocarcinoma. The data set is described as follows: Human A2780 ovarian cancer xenograft in female nude mice (TMU-A2780-e0001). The class given is in vivo.
The test system of data set [2] is HCT116 human colorectal adenocarcinoma. The procedure:
MPT0L056 was used to evaluate for activity against the HCT116 human colorectal adenocarcinoma.
However, MPT0E028 was administered orally (p.o.) in 1.0% CMC and 0.5% Tween 80 and given dose at 25 mg/kg daily to end schedule.
Each animal was euthanized when the tumors reached the predetermined endpoint size of 1,000 mm^3. The time to endpoint (TTE) for each mouse was calculated by the following equation:
[formula] where TTE is expressed in days, endpoint volume is in mm^3, b is the intercept, and m is the slope of the line obtained by linear regression of a log-transformed tumor growth data set. The data set is comprised of the first observation that exceeded the study endpoint volume and the three consecutive observations that immediately preceded the attainment of the endpoint volume. The calculated TTE is usually less than the day on which an animal is euthanized for tumor size. […] An animal classified as having died from treatment-related (TR) causes or non-treatment-related metastasis (NTRm) causes was assigned a TTE value equal to the day of death. An animal classified as having died from non-treatment-related (NTR) causes was excluded from TTE calculations.
Treatment efficacy was determined from tumor growth delay (TGD), which is defined as the increase in the median TTE for a treatment group compared to the control group: TGD=T−C, expressed in days, or as a percentage of the median TTE of the control group:
[formula] where: • T=median TTE for a treatment group, • C=median TTE for control Group 1.
Treatment efficacy was also determined from the tumor volumes of animals remaining in the study on the last day, and from the number of regression responses. The MTV(n) is defined as the median tumor volume on D59 in the number of animals remaining, n, whose tumors have not attained the endpoint volume.
Treatment may cause a partial regression (PR) or a complete regression (CR) of the tumor in an animal. […] An animal with a CR at the termination of a study is additionally classified as a tumor-free survivor (TFS).
Animals were weighed daily for the first five days, then twice weekly until the completion of the study. The mice were examined frequently for overt signs of any adverse, drug-related side effects. Acceptable toxicity for the MTD of cancer drugs is defined as a group mean BW loss of 20% or less during the test, and not more than one TR death among ten animals. A death is classified as TR if there is evidence of treatment side effects from clinical signs and/or necropsy or from unknown causes during dosing period or within 10 days of the last dose. A death is classified as NTR if there is no evidence that the death was related to treatment side effects.
The logrank test was used to determine the statistical significance of the difference between the TTE values of two groups, except any NTR deaths. Statistical and graphical analyses were performed with Prism 3.03 (GraphPad) for Windows. The two-tailed statistical analyses were conducted at P=0.05. Kaplan-Meier plots show the percentage of animals remaining in the study versus time. The Kaplan-Meier plots use the same data set as the log rank test. The tumor growth curves show the group median tumor volume, on a log scale as a function of time.

Data set [3] concerns human MDA-MB-231 breast adenocarcinoma. The data set is described as follows: Human MDA-MB-231 breast cancer xenograft in female nude mice (TMU-MDA-MB-231-e0002). The conditions noted are these: bortezomib 1 mg/kg QWK to end.
Data set [4] deals with human RPMI8226 multiple myeloma. The experiment in a line: Human RPMI8226 multiple myeloma xenograft in female nude mice (TMU-RPMI8226-e0001). The class given is in vivo. The conditions noted are these: SAHA 100 mg/kg once every day. An excerpt: The 42-day study utilized five groups of mice (n=6) bearing established human PRMI8226 multiple myeloma with mean volumes of ˜85 mm^3 on D1. […] (FIG. 3).

Another data set has as its system HCT-116. The data set is described as follows: Growth inhibition assay. The class given is cell-based. The conditions noted are these: Homo sapiens, HCT-116; read-out: HCT-116 GI50 (μM) Mean ± S.E. On the procedure: (§1) Cells were seeded in 96-well plastic plates and exposed to MPT0L056 for 48 hours. Cell viability was assessed using the 3-(4,5-dimethylthiazol-2-yl)-2,5-diphenyltetrazolium bromide assay. Growth inhibition was expressed as the percentage of surviving cells in drug-treated versus DMSO-treated control cells.
(§2) The compounds of the invention were subjected to growth inhibition assay.

The subject of another data set is HL-60. The data set is described as follows: Growth inhibition assay. Particulars: Homo sapiens, HL-60; read-out: HL-60 IC50 (μM) Mean ± S.E. The class given is cell-based. On the procedure:
as §1, §2

The subject of a further data set is Hep 3B. The data set is described as follows: Growth inhibition assay. The class given is cell-based. The conditions noted are these: Homo sapiens, Hep3B; read-out: Hep3B GI50 (μM) Mean ± S.E. On the procedure:
as §1, §2

For a further data set, the system named is MDA-MB-231. The data set is described as follows: Growth inhibition assay. It is filed as cell-based. Particulars: Homo sapiens, MDA-MB-231; read-out: MDA-MB-231 GI50 (μM) Mean ± S.E. On the procedure: as §1, §2
Setting [5] is: Group 3: bortezomib 1 mg/kg iv qwk to endpoint.
The mark [6] stands for this setting: Group 3: bortezomib 1 mg/kg iv qwk to endpoint, listed as Bortezomib.
Where [7] appears, read: Group 6: bortezomib 1 mg/kg iv qwk + MPT0E028 25 mg/kg po qd to endpoint.
Where [8] appears, read: Group 6: bortezomib 1 mg/kg iv qwk + MPT0E028 25 mg/kg po qd to endpoint, listed as Bortezomib.

Read-outs that look alike come from different tables or passages of the source.

For `N.N.[Cl][Pt][Cl]` [cisplatin, reference compound], in data set [1] (cisplatin 5 mg/kg QWK to end), the antitumor activity entry was “showed antitumor activity”.
In the case of `CC(C)C[C@H](NC(=O)[C@H](Cc1ccccc1)NC(=O)c1cnccn1)B(O)O` [bortezomib, reference compound], the antitumor activity result in data set [1] (bortezomib 1 mg/kg QWK to end) is “showed antitumor activity”. The “Median survival” value in data set [2] (Group 1 vs 3: bortezomib 1 mg/kg) is 38.95. In addition, the “Median survival” value in data set [2] (Group 1 vs 6: bortezomib + MPT0E028 1/25 mg/kg) came out at 38.4. Also, in data set [2] (setting [5]), the “% TGD” value came to 71%, the “MTV (n) Day 59” value is listed as 683 mm^3, the “Median TTE” value was found to be 38.9 days and the “No. of CR” value turned out to be 2. Further, in data set [2] (setting [5]), the “No. of LTTFS” value is reported as 0, the “No. of NTR” value is recorded as 0, the “No. of PR” value is on record as 1 and the “No. of TR” value is 0. Moreover, in data set [2] (setting [5]), the T-C turned out to be 16.2 days and the “antitumor activity (logrank analysis)” value was “produced significant antitumor activity”. The “Logrank Significance” value in data set [2] (Group 3: bortezomib 1 mg/kg iv qwk to endpoint, compared to Group 1) is reported as “* (* = P < 0.05)”. In data set [2] (setting [6]), the “% TGD” value worked out at 71%, the “No. of CR” value was “two” and the “No. of PR” value is “one”. For the same compound, in data set [2] (setting [7]), the “% TGD” value stood at 69%, the “MTV (n) Day 59” value is recorded as 0 mm^3, the “Median TTE” value is on record as 38.4 days and the “No. of CR” value is given as 1. For the same compound, in data set [2] (setting [7]), the “No. of LTTFS” value is reported as 1, the “No. of NTR” value is 4, the “No. of PR” value is listed as 1 and the “No. of TR” value turned out to be 0. Moreover, the T-C in data set [2] (setting [7]) is on record as 15.7 days. Moreover, in data set [2] (setting [8]), the “% TGD” value stood at 69%, the “No. of CR” value was “one”, the “No. of LTTFS” value is given as “one” and the “No. of PR” value is recorded as “one”. The antitumor activity entry in data set [3] is reported as “did not show antitumor activity”.
As for `O=C(CCCCCCC(=O)Nc1ccccc1)NO` [SAHA, reference compound], in data set [4], the antitumor activity entry was “also showed antitumor activity” and the “mice with complete regression” value is on record as “one of six”.
Consider `Cc1cc(NC(=O)c2ccc(CNC3=C(Cl)C(=O)c4ccccc4C3=O)cc2)c2ccccc2n1` [MPT0L112, 4-((3-chloro-1,4-dioxo-1,4-dihydronaphthalen-2-ylamino)methyl)-N-(2-methylquinolin-4-yl)benzamide], for which the GI50 in the data set on HCT-116 is 10 to 30 µM; in the data set on Hep 3B it was 10 to 30 µM; with MDA-MB-231, 8.12 ± 1.32 µM. For the same compound, the half-inhibitory concentration (IC50) in the data set on HL-60 stood at 2.68 ± 0.03 µM.
Turning to `O=C(Nc1cccnc1)c1ccc(CNC2=C(Cl)C(=O)c3ccccc3C2=O)cc1` [MPT0L055, 4-(((3-chloro-1,4-dioxo-1,4-dihydronaphthalen-2-yl)amino)methyl)-N-(pyridin-3-yl)benzamide], the GI50 in the data set with HCT-116, in the data set with Hep 3B and in the data set on MDA-MB-231 was 10 to 30 µM throughout. Further, in the data set on HL-60, the IC50 is 10 to 30 µM.
Regarding `O=C(Nc1ccc2[nH]ncc2c1)c1ccc(CNC2=C(Cl)C(=O)c3ccccc3C2=O)cc1` [MPT0L097, 4-((3-chloro-1,4-dioxo-1,4-dihydronaphthalen-2-ylamino)methyl)-N-(1H-indazol-5-yl)benzamide], the GI50 in the data set on HCT-116, with Hep 3B and in the data set on MDA-MB-231 was 10 to 30 µM throughout. The IC50 with HL-60 lay in the range of 10 to 30 µM.
`Cc1cc2cc(NC(=O)c3ccc(CNC4=C(Cl)C(=O)c5ccccc5C4=O)cc3)ccc2[nH]1` [MPT0L114, 4-((3-chloro-1,4-dioxo-1,4-dihydronaphthalen-2-ylamino)methyl)-N-(2-methyl-1H-indol-5-yl)benzamide]: the GI50 in the data set on HCT-116, in the data set on Hep 3B and in the data set on MDA-MB-231 was 10 to 30 µM throughout. In addition, the IC50 in the data set with HL-60 lay within 10 to 30 µM.
In the case of `O=C(Nc1cnc2[nH]ncc2c1)c1ccc(CNC2=C(Cl)C(=O)c3ccccc3C2=O)cc1` [MPT0L120, 4-((3-chloro-1,4-dioxo-1,4-dihydronaphthalen-2-ylamino)methyl)-N-(1H-pyrazolo[3,4-b]pyridin-5-yl)benzamide], the concentration for 50% growth inhibition (GI50) with HCT-116, in the data set with Hep 3B and in the data set on MDA-MB-231 was 10 to 30 µM throughout. Moreover, the IC50 with HL-60 was 7.31 ± 1.94 µM.
As for `O=C(Nc1ccccn1)c1ccc(CNC2=C(Cl)C(=O)c3ccccc3C2=O)cc1` [MPT0L018, 4-(((3-chloro-1,4-dioxo-1,4-dihydronaphthalen-2-yl)amino)methyl)-N-(pyridin-2-yl)benzamide], the GI50 in the data set on HCT-116, in the data set with Hep 3B and in the data set on MDA-MB-231 was 10 to 30 µM each time. For the same compound, in the data set on HL-60, the IC50 was in the range of 10 to 30 µM.
Take `Cc1cc(NC(=O)c2ccc(CNC3=C(Cl)C(=O)c4ccccc4C3=O)cc2)n[nH]1` [MPT0L099, 4-((3-chloro-1,4-dioxo-1,4-dihydronaphthalen-2-ylamino)methyl)-N-(5-methyl-3H-pyrazol-3-yl)benzamide]: the GI50 in the data set with HCT-116, in the data set on Hep 3B and in the data set with MDA-MB-231 was 10 to 30 µM in each case. In the data set with HL-60, the IC50 lay within 10 to 30 µM.
With `O=C(Nc1nccs1)c1ccc(CNC2=C(Cl)C(=O)c3ccccc3C2=O)cc1` [MPT0L085, 4-(((3-chloro-1,4-dioxo-1,4-dihydronaphthalen-2-yl)amino)methyl)-N-(thiazol-2-yl)benzamide], the GI50 in the data set on HCT-116, in the data set with Hep 3B and in the data set with MDA-MB-231 was 10 to 30 µM in each case. Further, the IC50 in the data set on HL-60 amounted to 8.53 ± 0.55 µM.
`O=C(Nc1cnccn1)c1ccc(CNC2=C(Cl)C(=O)c3ccccc3C2=O)cc1` [MPT0L076, 4-(((3-chloro-1,4-dioxo-1,4-dihydronaphthalen-2-yl)amino)methyl)-N-(pyrazin-2-yl)benzamide]: the figures for the GI50 in the data set with HCT-116, in the data set on Hep 3B and with MDA-MB-231 were 5.52 ± 0.66 µM, 8.77 ± 0.9 µM and 9.19 ± 0.4 µM, respectively. In addition, in the data set on HL-60, the IC50 was found to be 7.27 ± 2.98 µM.
On to `O=C(Nc1cccc2cccnc12)c1ccc(CNC2=C(Cl)C(=O)c3ccccc3C2=O)cc1` [MPT0L109, 4-((3-chloro-1,4-dioxo-1,4-dihydronaphthalen-2-ylamino)methyl)-N-(quinolin-8-yl)benzamide], for which the GI50 in the data set on HCT-116, in the data set on Hep 3B and in the data set on MDA-MB-231 was 10 to 30 µM in each case. Besides, the concentration for half-maximal inhibition (IC50) in the data set with HL-60 is 6.43 ± 2.44 µM.
